For 28 molecules, IC50 results are on record in patent US20230331675A1, “AROMATIC ETHYLENE COMPOUND AND PREPARATION METHOD THEREFOR, AND INTERMEDIATE, PHARMACEUTICAL COMPOSITION, AND APPLICATION THEREOF” (GUANGZHOU MAXINOVEL PHARMACEUTICALS CO., LTD., priority 2020, published 2023).

The target of the experiment is PD-1/PD-L1 (Homo sapiens (Human), UniProt Q9NZQ7). In words: Homogeneous time-resolved fluorescence (HTRF) binding assay. The note with it: CisBio kit, read-out: IC50 of compounds binding to PD-1/PD-L1. An excerpt: Effect embodiment 1: Homogenouse time-resolved fluorescence
Homogeneous time-resolved fluorescence (HTRF) binding assay was used to determine the binding ability of the compound of the present disclosure to PD-1/PD-L1.
The purchased kit (CisBio, #64CUS000C-1) contained reagents required for assays such as PD-1, PD-L1, anti-tag1-Eu, Anti-tag2-XL665, dilute buffer, and detection buffer.
1. The compound was formulated to 10 concentrations with a 3-fold gradient with 100% DMSO.
2. The DMSO solution of the compound was added to the dilute buffer, mixed thoroughly, then transferred to a 96-well plate.
3. PD-L1 was diluted with dilute buffer, then added to the above 96-well plate.
4. PD-1 was diluted with dilute buffer and added to the above 96-well plate, which was then incubated at room temperature for 30 minutes.
5. A portion of anti-tag1-Eu and a portion of anti-tag2-XL665 were added to the detection buffer, mixed thoroughly and transferred to the above 96-well plate.
6. The mixture in the above 96-well plate was incubated at room temperature for 1 to 24 hours.
7. HTRF values were read with Envision.

PD-1/PD-L1, sequence (Q9NZQ7 19-238): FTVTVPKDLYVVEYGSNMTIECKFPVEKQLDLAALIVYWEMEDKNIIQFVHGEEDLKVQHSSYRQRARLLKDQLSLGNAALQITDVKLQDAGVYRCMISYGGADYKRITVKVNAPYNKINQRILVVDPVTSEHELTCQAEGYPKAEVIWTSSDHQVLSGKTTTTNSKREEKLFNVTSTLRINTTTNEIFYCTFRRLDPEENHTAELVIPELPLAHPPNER

As to `[2H]C([2H])([2H])Oc1cc(/C=C/c2cccc(-c3ccccc3)c2C)c(C(F)(F)F)cc1CN1CCCC[C@H]1C(=O)O` [Compound 60, (S,E)-1-(2-(Methoxy-d3)-4-(2-(2-methyl-[1,1′-biphenyl]-3-yl)vinyl)-5-trifluoromethylbenzyl)piperidine-2-carboxylic acid], the IC50 was determined as 0.59 nM.
The value for `[2H]c1c([2H])c([2H])c(-c2cccc(/C=C/c3cc(OC)c(CN4CCCC[C@H]4C(=O)O)cc3C(F)(F)F)c2C)c([2H])c1[2H]` [Compound 61, (S,E)-1-(2-Methoxy-4-(2-(2-methyl-[1,1′-biphenyl]-3-yl-2′,3′,4′,5′,6′-d5)vinyl)-5-trifluoromethylbenzyl)piperidine-2-carboxylic acid] was 0.73 nM; that for `COc1cc(/C=C/c2cccc(-c3ccccc3)c2C)c(C(F)(F)F)cc1CN1CCCC[C@@H]1C(=O)O` [Compound 62, (R,E)-1-(2-Methoxy-4-(2-(2-methyl-[1,1′-biphenyl]-3-yl)vinyl)-5-trifluoromethylbenzyl)piperidine-2-carboxylic acid] was 7.42 nM.
To `COc1cc(CN2CCCC[C@H]2C(=O)O)c(OC)cc1/C=C/c1cccc(-c2ccccc2)c1C` [Compound 63, (S,E)-1-(2,5-Dimethoxy-4-(2-(2-methyl-[1,1′-biphenyl]-3-yl)vinyl)benzyl)piperidine-2-carboxylic acid] belongs 30.5 nM; to `COc1cc(/C(F)=C/c2cccc(-c3ccccc3)c2C)c(C(F)(F)F)cc1CN1CCCC[C@H]1C(=O)O` [Compound 64, (S,Z)-1-(4-(1-Fluoro-2-(2-methyl-[1,1′-biphenyl]-3-yl)vinyl)2-methoxy-5-trifluoromethylbenzyl)piperidine-2-carboxylic acid], 29.5 nM.
With `COc1cc(/C(F)=C/c2cccc(-c3ccccc3)c2C)c(C(F)(F)F)cc1CNCCO` [Compound 65, (Z)-2-((4-(1-Fluoro-2-(2-methyl-[1,1′-biphenyl]-3-yl)vinyl)-2-methoxy-5-trifluoromethylbenzyl)amino)-1-ethanol], the IC50 was determined as 48 nM.
Regarding `COc1cc(/C(Br)=C/c2cccc(-c3ccccc3)c2C)c(C(F)(F)F)cc1CNCCO` [Compound 66, (Z)-2-((4-(1-Bromo-2-(2-methyl-[1,1′-biphenyl]-3-yl)vinyl)-2-methoxy-5-trifluoromethylbenzyl)amino)-1-ethanol], the IC50 amounted to 41.7 nM.
Take `COc1cc(/C(Br)=C/c2cccc(-c3ccccc3)c2C)c(C(F)(F)F)cc1CN1CCCC[C@H]1C(=O)O` [Compound 67, (S,Z)-1-(4-(1-Bromo-2-(2-methyl-[1,1′-biphenyl]-3-yl)vinyl)-2-methoxy-5-trifluoromethylbenzyl)piperidine-2-carboxylic acid]: the IC50 was 12.8 nM.
Take `COc1cc(/C=C(\Br)c2cccc(-c3ccccc3)c2C)c(C)cc1CN1CCCC[C@H]1C(=O)O` [Compound 68, (S,Z)-1-(4-(2-Bromo-2-(2-methyl-[1,1′-biphenyl]-3-yl)vinyl)-2-methoxy-5-methylbenzyl)piperidine-2-carboxylic acid]: the IC50 turned out to be 169 nM.
The value for `COc1cc(/C=C(\Br)c2cccc(-c3ccccc3)c2C)c(C)cc1CNCCO` [Compound 69, (Z)-2-((4-(2-Bromo-2-(2-methyl-[1,1′-biphenyl]-3-yl)vinyl)-2-methoxy-5-methylbenzyl)amino)-1-ethanol] was 260 nM; that for `COc1cc(/C=C/c2cccc(-c3ccccc3)c2C)c(C)cc1CN1CCCC[C@H]1C(=O)O` [Compound 70, (S,E)-1-(2-Methoxy-5-methyl-4-(2-(2-methyl-[1,1′-biphenyl]-3-yl)vinyl)benzyl)piperidine-2-carboxylic acid] was 9.31 nM; that for `COc1cc(/C=C/c2cccc(-c3ccccc3)c2Cl)c(C(F)(F)F)cc1CN1CCCC[C@H]1C(=O)O` [Compound 71, (S,E)-1-(4-(2-(2-Chloro-[1,1′-biphenyl]-3-yl)vinyl)-2-methoxy-5-trifluoromethylbenzyl)piperidine-2-carboxylic acid] was 0.68 nM.
Consider `COc1cc(/C=C/c2cccc(-c3ccccc3)c2CF)c(C(F)(F)F)cc1CN1CCCC[C@H]1C(=O)O` [Compound 73, (S,E)-1-(4-(2-(2-Fluoromethyl-[1,1′-biphenyl]-3-yl)vinyl)-2-methoxy-5-trifluoromethylbenzyl)piperidine-2-carboxylic acid], for which the IC50 was determined as 3.99 nM.
As to `COc1cc(/C=C/c2cccc(-c3ccccc3)c2CF)c(C(F)(F)F)cc1CNCCO` [Compound 74, (E)-2-((4-(2-(2-Fluoromethyl-[1,1′-biphenyl]-3-yl)vinyl)-2-methoxy-5-trifluoromethylbenzyl)amino)-1-ethanol], the IC50 is 7.09 nM.
The value for `Cc1c(/C=C/c2cc(OCc3cccc(I)c3)c(CN3CCCC[C@H]3C(=O)O)cc2C(F)(F)F)cccc1-c1ccccc1` [Compound 77] was 5.91 nM; that for `Cc1c(/C=C/c2cc(OCc3ccc(I)cc3)c(CN3CCCC[C@H]3C(=O)O)cc2C(F)(F)F)cccc1-c1ccccc1` [Compound 78] was 65.5 nM; that for `Cc1cc(CN2CCCC[C@H]2C(=O)O)c(OCc2cc(I)ccn2)cc1/C=C/c1cccc(-c2ccccc2)c1C` [Compound 79, (S,E)-1-(2-((4-Iodo-pyridin-2-yl)methoxy)-5-methyl-4-(2-(2-methyl-[1,1′-biphenyl]-3-yl)vinyl)benzyl)piperidine-2-carboxylic acid] was 5.31 nM.
To `Cc1c(/C=C/c2cc(OCc3cc(I)ccn3)c(CN3CCCC[C@H]3C(=O)O)cc2C(F)(F)F)cccc1-c1ccccc1` [Compound 80, (S,E)-1-(2-((4-Iodopyridin-2-yl)methoxy)-4-(2-(2-methyl-[1,1′-biphenyl]-3-yl)vinyl)-5-(trifluoromethyl)benzyl)piperidine-2-carboxylic acid] belongs 3.97 nM; to `Cc1c(/C=C/c2cc(OCc3ccnc(I)c3)c(CN3CCCC[C@H]3C(=O)O)cc2C(F)(F)F)cccc1-c1ccccc1` [Compound 81, (S,E)-1-(2-((2-Iodopyridin-4-yl)methoxy)-4-(2-(2-methyl-[1,1′-biphenyl]-3-yl)vinyl)-5-(trifluoromethyl)benzyl)piperidine-2-carboxylic acid], 2.13 nM; to `Cc1c(/C=C/c2cc(OCc3cncc(I)c3)c(CN3CCCC[C@H]3C(=O)O)cc2C(F)(F)F)cccc1-c1ccccc1` [Compound 82, (S,E)-1-(2-((5-Iodopyridin-3-yl)methoxy)-4-(2-(2-methyl-[1,1′-biphenyl]-3-yl)vinyl)-5-(trifluoromethyl)benzyl)piperidine-2-carboxylic acid], 1.85 nM.
The value for `Cc1cc(CN2CCCC[C@H]2C(=O)O)c(OCCCCF)cc1/C=C/c1cccc(-c2ccccc2)c1C` [Compound 83, (S,E)-1-(2-(4-Fluorobutoxy)-5-methyl-4-(2-(2-methyl-[1,1′-biphenyl]-3-yl)vinyl)benzyl)piperidine-2-carboxylic acid] was 6.99 nM; that for `Cc1cc(CN2CCCC[C@H]2C(=O)O)c(OCCCF)cc1/C=C/c1cccc(-c2ccccc2)c1C` [Compound 84, (S,E)-1-(2-(3-Fluoropropoxy)-5-methyl-4-(2-(2-methyl-[1,1′-biphenyl]-3-yl)vinyl)benzyl)piperidine-2-carboxylic acid] was 8.03 nM.
As for `Cc1c(/C=C/c2cc(OCCCCF)c(CN3CCCC[C@H]3C(=O)O)cc2C(F)(F)F)cccc1-c1ccccc1` [Compound 85, (S,E)-1-(2-(4-Fluorobutoxy)-4-(2-(2-methyl-[1,1′-biphenyl]-3-yl)vinyl)-5-(trifluoromethyl)benzyl)piperidine-2-carboxylic acid], the IC50 is 4.34 nM.
`Cc1c(/C=C/c2cc(OCCCF)c(CN3CCCC[C@H]3C(=O)O)cc2C(F)(F)F)cccc1-c1ccccc1` [Compound 86, (S,E)-1-(2-(3-Fluoropropoxy)-4-(2-(2-methyl-[1,1′-biphenyl]-3-yl)vinyl)-5-(trifluoromethyl)benzyl)piperidine-2-carboxylic acid]: the IC50 amounted to 3.58 nM.
Regarding `Cc1c(/C=C/c2cc(OCCF)c(CN3CCCC[C@H]3C(=O)O)cc2C(F)(F)F)cccc1-c1ccccc1` [Compound 87, (S,E)-1-(2-(2-Fluoroethoxy)-4-(2-(2-methyl-[1,1′-biphenyl]-3-yl)vinyl)-5-(trifluoromethyl)benzyl)piperidine-2-carboxylic acid], the IC50 stood at 2.8 nM.
The value for “(S,E)-1-(2-((3-Iodobenzyloxy)-5-methyl-4-(2-(2-methyl-[1,1′-biphenyl]-3-yl)vinyl)benzyl)piperidine-2-carboxylic acid [Compound 75]” was 28.4 nM; that for “(S,E)-1-(2-Methoxy-4-(2-(2-methyl-d3)-[1,1′-biphenyl]-3-yl)vinyl)-5-trifluoromethylbenzyl)piperidine-2-carboxylic acid [Compound 51]” was 2.2 nM; that for “(S,E)-2-((5-Chloro-2-(2-(2-cyano-[1,1′-biphenyl]-3-yl)vinyl)-4-(3-methylsulfonyl)propoxy)benzyl)amino)-3-hydroxy-2-methylpropionic acid [Compound 38]” was 298 nM.
